# Measured values reported in patent US6861390B2, “Derivatives of UK-2A” (priority 2001, dated 2005).
# What was measured:
# [1] = system: Leptosphaeria nodorum (LEPTNO); experiment: Glume Blotch of Wheat, whole plant 24 Hour Protectant (T2); details: Parastagonospora nodorum; wheat (cultivar Yuma), sprayed at 100 ppm, inoculated after 24 hours; read-out: T2 LEPTNO in vivo 1 Day Protectant, control of fungal infection
# [2] = system: Mycosphaerella graminicola (Septoria tritici, SEPTTR); experiment: microbe, parasite or virus in culture; assay type: cell-based; details: Zymoseptoria tritici, read-out: T11 SEPTTR in vitro Growth Inhibition
# [3] = system: Stagonospora nodorum (Leptosphaeria nodorum, LEPTNO); experiment: microbe, parasite or virus in culture; assay type: cell-based; details: Parastagonospora nodorum, read-out: T7 LEPTNO in vitro Growth Inhibition
# [4] = system: Phytophthora infestans (PHYTIN); experiment: microbe, parasite or virus in culture; assay type: cell-based; details: in Secale cereale, read-out: T8 PHYTIN in vitro Growth Inhibition
# [5] = system: Erysiphe graminis (ERYSGT); experiment: Powdery Mildew of Wheat, whole plant 24 Hour Protectant (T1); details: Blumeria graminis, in Triticum aestivum, read-out: T1 ERYSGT in vivo 1 Day Protectant, control of fungal infection
# Protocol: Compound formulation was accomplished by dissolving technical materials in acetone, with serial dilutions then made in acetone to obtain desired concentrations. Final treatment volumes were obtained by adding 9 volumes 0.01% Triton X-100.
# Powdery Mildew of Wheat (Erysiphe graminis—ERYSGT) (24 Hour Protectant): Wheat (cultivar Monon) was grown in a soilless peat-based potting mixture (“Metromix”) and mineral soil (50/50 mix) until the seedlings were 10-20 cm tall. These plants were then sprayed to run-off with the test compound at a rate of 100 ppm. After 24 hours the test plants were inoculated by dusting with conidia from powdery mildew infected wheat plants. The plants were then transferred to the greenhouse until disease developed on the untreated control plants.
# Ustilago maydis (USTIMA) = experiment: microbe, parasite or virus in culture; assay type: cell-based; details: Mycosarcoma maydis, read-out: T12 USTIMA in vitro Growth Inhibition
# [6] = system: Rhizoctonia solani (RHIZSO); experiment: microbe, parasite or virus in culture; assay type: cell-based; details: read-out: T10 RHIZSO in vitro Growth Inhibition
# [7] = system: Puccinia recondita (PUCCRT); experiment: Brown Rust of Wheat, whole plant 24 Hour Protectant (T5); details: wheat (cultivar Yuma), sprayed at 100 ppm, inoculated after 24 hours, read-out: T5 PUCCRT in vivo 1 Day Protectant, control of fungal infection
# [8] = system: Phytophthora infestans (PHYTIN); experiment: whole plant or invertebrate; details: in Solanum lycopersicum, 24 h, read-out: T3 PHYTIN in vivo 1 Day Protectant, control of fungal infection
# [9] = system: Magnaporthe grisea (Pyricularia oryzae, PYRIOR); experiment: microbe, parasite or virus in culture; assay type: cell-based; details: read-out: T9 PYRIOR in vitro Growth Inhibition
# [10] = system: Septoria tritici (SEPTTR); experiment: Leaf Blotch of Wheat, whole plant 24 Hour Protectant (T6); details: Zymoseptoria tritici; wheat (cultivar Monon), sprayed at 100 ppm, inoculated after 24 hours; read-out: T6 SEPTTR in vivo 1 Day Protectant, control of fungal infection
Structure (SMILES),pest or weed control at 100 ppm [1] [%],inhibition at 25 ppm [2] [%],inhibition at 25 ppm [3] [%],melting point [°C],inhibition at 25 ppm [4] [%],pest or weed control at 100 ppm [5] [%],inhibition at 25 ppm (Ustilago maydis (USTIMA)) [%],inhibition at 25 ppm [6] [%],pest or weed control at 100 ppm [7] [%],pest or weed control at 100 ppm [8] [%],inhibition at 25 ppm [9] [%],pest or weed control at 100 ppm [10] [%]
COCOc1c(OC)ccnc1C(=O)N[C@H]1COC(=O)[C@H](Cc2ccccc2)[C@@H](OC(=O)C(C)C)[C@H](C)OC1=O [Compound 4],75 to 100,< 80,> 80,146 to 147,< 80,25 to 74,< 80,< 80,75 to 100,< 25,> 80,
COCCOC(=O)OCOc1c(OC)ccnc1C(=O)N[C@H]1COC(=O)[C@H](Cc2ccccc2)[C@@H](OC(=O)C(C)C)[C@H](C)OC1=O [Compound 48],75 to 100,< 80,> 80,,< 80,75 to 100,> 80,< 80,75 to 100,< 25,< 80,75 to 100
COCCC(=O)OCOc1c(OC)ccnc1C(=O)N[C@H]1COC(=O)[C@H](Cc2ccccc2)[C@@H](OCC(C)C)[C@H](C)OC1=O [Compound 54],75 to 100,> 80,> 80,,< 80,75 to 100,> 80,< 80,75 to 100,< 25,> 80,75 to 100
CCCO[C@H]1[C@H](C)OC(=O)[C@@H](NC(=O)c2nccc(OC)c2OCOC(=O)CCOC)COC(=O)[C@@H]1Cc1ccccc1 [Compound 55],75 to 100,> 80,> 80,,< 80,75 to 100,< 80,< 80,75 to 100,< 25,> 80,75 to 100
COc1ccnc(C(=O)N[C@H]2COC(=O)[C@H](Cc3ccccc3)[C@@H](OCC(C)C)[C@H](C)OC2=O)c1OCOC(=O)C1CC1 [Compound 56],75 to 100,> 80,> 80,,< 80,75 to 100,< 80,< 80,75 to 100,< 25,> 80,75 to 100
COCCOC(=O)OCOc1c(OC)ccnc1C(=O)N[C@H]1COC(=O)[C@H](Cc2ccccc2)[C@@H](OCC(C)C)[C@H](C)OC1=O [Compound 57],75 to 100,> 80,> 80,,< 80,75 to 100,> 80,< 80,75 to 100,< 25,> 80,75 to 100
COCC(=O)OCOc1c(OC)ccnc1C(=O)N[C@H]1COC(=O)[C@H](Cc2ccccc2)[C@@H](OCC(C)C)[C@H](C)OC1=O [Compound 58],75 to 100,> 80,> 80,,> 80,75 to 100,> 80,< 80,75 to 100,< 25,> 80,75 to 100
CCOCC(=O)OCOc1c(OC)ccnc1C(=O)N[C@H]1COC(=O)[C@H](Cc2ccccc2)[C@@H](OCC(C)C)[C@H](C)OC1=O [Compound 59],75 to 100,> 80,> 80,,> 80,75 to 100,> 80,< 80,75 to 100,< 25,> 80,75 to 100
CCCO[C@H]1[C@H](C)OC(=O)[C@@H](NC(=O)c2nccc(OC)c2OCOC(=O)COCC)COC(=O)[C@@H]1Cc1ccccc1 [Compound 60],75 to 100,> 80,> 80,,> 80,75 to 100,> 80,< 80,75 to 100,< 25,> 80,75 to 100
COc1ccnc(C(=O)N[C@H]2COC(=O)[C@H](Cc3ccccc3)[C@@H](OCC(C)C)[C@H](C)OC2=O)c1OCOC(=O)C1CCCC1 [Compound 61],75 to 100,> 80,> 80,,< 80,75 to 100,> 80,< 80,75 to 100,< 25,> 80,75 to 100
CCCO[C@H]1[C@H](C)OC(=O)[C@@H](NC(=O)c2nccc(OC)c2OCOC(=O)C2CCCC2)COC(=O)[C@@H]1Cc1ccccc1 [Compound 62],75 to 100,> 80,> 80,,< 80,75 to 100,> 80,< 80,75 to 100,< 25,< 80,75 to 100
CCCC(=O)OCOc1c(OC)ccnc1C(=O)N[C@H]1COC(=O)[C@H](Cc2ccccc2)[C@@H](OCC(C)C)[C@H](C)OC1=O [Compound 63],75 to 100,> 80,> 80,,< 80,75 to 100,< 80,< 80,75 to 100,< 25,> 80,75 to 100
CCCO[C@H]1[C@H](C)OC(=O)[C@@H](NC(=O)c2nccc(OC)c2OCOC(=O)CCC)COC(=O)[C@@H]1Cc1ccccc1 [Compound 64],75 to 100,> 80,> 80,,< 80,75 to 100,< 80,< 80,75 to 100,< 25,> 80,75 to 100
CCOCC(=O)OCOc1c(OC)ccnc1C(=O)N[C@H]1COC(=O)[C@H](Cc2ccccc2)[C@@H](OCSC)[C@H](C)OC1=O [Compound 72],75 to 100,> 80,> 80,,< 80,25 to 74,> 80,< 80,75 to 100,< 25,> 80,25 to 74
COc1ccnc(C(=O)N[C@H]2COC(=O)[C@H](Cc3ccccc3)[C@@H](OCSC)[C@H](C)OC2=O)c1OCOC(=O)C1CCCC1 [Compound 73],75 to 100,> 80,> 80,,< 80,25 to 74,> 80,< 80,75 to 100,< 25,> 80,75 to 100
COCCOCC(=O)OCOc1c(OC)ccnc1C(=O)N[C@H]1COC(=O)[C@H](Cc2ccccc2)[C@@H](OCSC)[C@H](C)OC1=O [Compound 74],75 to 100,> 80,> 80,,< 80,25 to 74,> 80,< 80,75 to 100,< 25,> 80,25 to 74
